This passage reports EC50, Activity and TGI results from ChEMBL document CHEMBL5143556, “Molecular hybridization used to design and synthesize neo-tanshinlactone derivatives as PD-1/PD-L1 inhibitors” (Bioorg Med Chem, 2022).

The term pEC50 denotes the negative decadic logarithm of the EC50, by convention in mol/L. A low value points to a high EC50. One may read the EC50 as the concentration at which the effect is half-maximal.

A short description of data set [1]: Cytotoxicity against T cell (unknown origin). Format: toxicity, cell-based, Homo sapiens. As to conditions: T cells.
Data set [2] concerns Jurkat. Nature of the data set: Cytotoxicity against human Jurkat T cells co-cultured with MDA-MB-231 cells assessed as reduction in cell viability at 50 uM after 48 hrs by CFSE staining based flow cytometric analysis. Format: toxicity. For orientation: A flow cytometer gives signals particle by particle.
The test system of data set [3] is Jurkat. In words: Induction of anti-CD3/CD28 antibodies-stimulated human Jurkat T cell activation co-cultured with MDA-MB-231 cells assessed as increase IFN-gamma protein expression in CD8+ cells at 5 uM after 48 hrs by flow cytometric analysis. Format: functional, cell-based.
The subject of data set [4] is Jurkat. Nature of the data set: Induction of anti-CD3/CD28 antibodies-stimulated human Jurkat T cell activation co-cultured with MDA-MB-231 cells assessed as increase granzyme B protein expression in CD8+ cells at 5 uM after 48 hrs by flow cytometric analysis. Format: functional, cell-based.
Data set [5] concerns Jurkat. Nature of the data set: Induction of anti-CD3/CD28 antibodies-stimulated human Jurkat T cell activation co-cultured with MDA-MB-231 cells assessed as increase TNFalpha protein expression in CD8+ cells at 5 uM after 48 hrs by flow cytometric analysis. Format: functional, cell-based.
In data set [6] the test system is Jurkat. Nature of the data set: Induction of anti-CD3/CD28 antibodies-stimulated human Jurkat T cell activation co-cultured with MDA-MB-231 cells assessed as increase IFN-gamma protein expression in CD8+ cells in presence of PMA and ionomycin at 5 uM after 48 hrs by flow cytometric analysis. The data set is classed as functional, cell-based.
In data set [7] the test system is Jurkat. Nature of the data set: Induction of anti-CD3/CD28 antibodies-stimulated human Jurkat T cell activation co-cultured with MDA-MB-231 cells assessed as increase granzyme B protein expression in CD8+ cells at 5 uM in presence of PMA and ionomycin after 48 hrs by flow cytometric analysis. Format: functional, cell-based.
Data set [8] deals with Jurkat. In words: Induction of anti-CD3/CD28 antibodies-stimulated human Jurkat T cell activation co-cultured with MDA-MB-231 cells assessed as increase TNFalpha protein expression in CD8+ cells at 5 uM in presence of PMA and ionomycin after 48 hrs by flow cytometric analysis. The data set is classed as functional, cell-based.
Data set [9] relates to Jurkat. Nature of the data set: Cytotoxicity against human Jurkat T cells co-cultured with MDA-MB-231 cells assessed as reduction in cell viability at 5 to 10 uM after 48 hrs by CFSE staining based flow cytometric analysis. The data set is classed as toxicity. As to conditions: dose 5-10 µM.
Data set [10] has as its system MC-38. In words: Antitumour activity against mouse MC38 cells implanted in C57BL6 mouse assessed reduction in tumor size at 25 mg/kg, IG for 16 days. The data set is classed as functional, organism-based. As to conditions: time 16.0 day.
Data set [11] deals with MC-38. In words: Antitumour activity against mouse MC38 cells implanted in C57BL6 mouse assessed reduction in tumor weight at 25 mg/kg, IG for 16 days. The data set is classed as functional, organism-based. As to conditions: time 16.0 day.
Data set [12] deals with MC-38. In words: Antitumour activity against mouse MC38 cells implanted in C57BL6 mouse assessed increase in CD4+CD8- cells at 25 mg/kg, IG for 16 days by flow cytometric analysis. Format: functional, organism-based. The following applies: time 16.0 day.
The test system of data set [13] is MC-38. Nature of the data set: Antitumour activity against mouse MC38 cells implanted in C57BL6 mouse assessed increase in CD4+CD8-Tim3+ cells at 25 mg/kg, IG for 16 days by flow cytometric analysis. The following applies: time 16.0 day. Format: functional, organism-based.
The test system of data set [14] is Jurkat. In words: Induction of cell proliferation in human Jurkat T cells co-cultured with MDA-MB-231 cells assessed as increase in cell viability at < 5 uM after 48 hrs by CFSE staining based flow cytometric analysis. The data set is classed as functional.
Data set [15] has as its system MC-38. Nature of the data set: Antitumour activity against mouse MC38 cells implanted in C57BL6 mouse assessed reduction in tumor size at 10 to 25 mg/kg, IG for 16 days. As to conditions: dose 10-25 mg/kg, time 16.0 day. The data set is classed as functional, organism-based.
The test system of data set [16] is MC-38. In words: Antitumour activity against mouse MC38 cells implanted in C57BL6 mouse assessed reduction in tumor weight at 10 to 25 mg/kg, IG for 16 days. The data set is classed as functional, organism-based. As to conditions: dose 10-25 mg/kg, time 16.0 day.
The test system of data set [17] is MC-38. In words: Antitumour activity against mouse MC38 cells implanted in C57BL6 mouse assessed reduction in tumor growth at 10 to 25 mg/kg, IG for 16 days by PCNA staining based immunohistochemical analysis. Format: functional, organism-based. The following applies: dose 10-25 mg/kg, time 16.0 day.
Data set [18] has as its system MC-38. In words: Antitumour activity against mouse MC38 cells implanted in C57BL6 mouse assessed reduction in tumor growth at 10 to 25 mg/kg, IG for 16 days by Ki67 staining based immunohistochemical analysis. The data set is classed as functional, organism-based. The following applies: dose 10-25 mg/kg, time 16.0 day.
Data set [19] deals with MC-38. In words: Antitumour activity against mouse MC38 cells implanted in C57BL6 mouse assessed decrease in CD4+CD8-PD1+ cells at 10 to 25 mg/kg, IG for 16 days by flow cytometric analysis. The data set is classed as functional, organism-based. As to conditions: dose 10-25 mg/kg, time 16.0 day.
Data set [20] has as its system MC-38. In words: Antitumour activity against mouse MC38 cells implanted in C57BL6 mouse assessed increase in CD4+CD8-Tim3+ cells at 10 to 25 mg/kg, IG for 16 days by flow cytometric analysis. Format: functional, organism-based. The following applies: dose 10-25 mg/kg, time 16.0 day.
Data set [21] relates to MC-38. Nature of the data set: Antitumour activity against mouse MC38 cells implanted in C57BL6 mouse assessed increase in CD4-CD8+Tim3+ cells at 10 to 25 mg/kg, IG for 16 days by flow cytometric analysis. Format: functional, organism-based. As to conditions: dose 10-25 mg/kg, time 16.0 day.
For data set [22], the system named is MC-38. Nature of the data set: Antitumour activity against mouse MC38 cells implanted in C57BL6 mouse assessed increase in CD4-CD8+PD-1+ cells at 10 to 25 mg/kg, IG for 16 days by flow cytometric analysis. The data set is classed as functional, organism-based. The following applies: dose 10-25 mg/kg, time 16.0 day.
Data set [23] deals with MCF7. Nature of the data set: Antiproliferative activity against human MCF7 cells assessed as reduction in […]. Format: functional, cell-based.
Data set [24] has as its system ZR-75-1. In words: Antiproliferative activity against human ZR-75-1 cells assessed as reduction in […]. The data set is classed as functional, cell-based.
Data set [25] has as its system SK-BR-3. In words: Antiproliferative activity against human SK-BR-3 cells assessed as reduction in […]. Format: functional, cell-based.

pEC50: −log10 of the molar value. The source made the active and inactive calls. No cut-off for these calls is given here.

In data set [1], `Cc1c(COc2cc(OCc3cccc(C#N)c3)c(CN3C[C@@H](O)C[C@H]3C(=O)O)cc2Cl)cccc1-c1ccc2c(c1)OCCO2` had a pEC50 of 8.85.
For `O=C(O)[C@@H]1Cc2ccccc2CN1Cc1ccc(OCc2cccc(-c3ccccc3)c2Br)cc1Oc1cc(=O)oc2c1ccc1ccccc12`, the Activity entry in data set [2] is on record as “Toxic”. The outcome in data set [3], in data set [4], in [5], in data set [6], in [7] and in [8] was Active.
Take `COc1nc(OCc2cccc(-c3ccccc3)c2C)ccc1CNCCNC(C)=O`: in [1], the pEC50 was 7.96. Also, the Activity result in [9] was “Non-Toxic”. Also, the result in data set [3], in data set [4], in data set [5], in [6], in [7] and in data set [8] was Active. Also, the outcome in data set [10], in [11], in data set [12] and in data set [13] was Active.
In the case of `Cc1c(COc2ccc(CN3Cc4ccccc4CC3C(=O)O)c(Oc3cc(=O)oc4ccccc34)c2)cccc1-c1ccccc1` (racemic), the result in data set [14] was Active.
For `Cc1c(COc2ccc(CN3Cc4ccccc4C[C@@H]3C(=O)O)c(Oc3cc(=O)oc4c3ccc3ccccc34)c2)cccc1-c1ccccc1`, the outcome in data set [14], in [3], in [4], in data set [5], in data set [6] and in [7] was Active. For the same compound, the result in data set [8], in data set [15], in [16], in [19], in data set [20] and in [21] was Active. In addition, the result in data set [22] was Active. Further, the Activity result in data set [2] is listed as “Toxic”. In addition, the TGI result in [17] and in data set [18] was “Active” each time.
As for `CCc1cccc2c1ccc1c3occ(C)c3c(=O)oc21`, the EC50 in [23] amounted to 0.45 µg/mL; in data set [24], 0.18 µg/mL; in data set [25], 0.1 µg/mL.
